How the values were obtained:
RS4;11 and SEM cells [1] = assay: Cytochrome c release by flow cytometry; format: cell-based, human; conditions: CP 2.5 μM, 24 h
Description: (§1) To determine whether the apoptotic stimuli involved mitochondria alteration, we examined the mitochondrial transmembrane potential (ΔΨmt) by means of the fluorescence dye JC-1.
(§2) FIGURE 2 CP induces caspase-dependent apoptosis without mitochondria involvement (A) Assessment of mitochondrial membrane potential (ΔΨmt) after treatment of RS4;11 and SEM cells with CP (2.5 μM) for the indicated times. Cells were stained with the fluorescent probe JC-1. Data are represented as mean ± S.E.M. of three independent experiments. (B) Flow cytometric analysis of RS4;11 and SEM cells treated with CP (2.5 μM) for 24 h showing cytochrome c labeled with a monoclonal antibody conjugated to FITC. Representative image of three experiments with similar results. (C) Cells were incubated with CP 2.5 μM and 5 μM in the presence or absence of the pan-caspase inhibitor z-VAD.fmk (100 μM). Cell viability was determined after 48 h by MTT assay. […]
(§3) The mitochondrial membrane potential was measured with the lipophilic cation 5,5',6,6'-tetrachlo-1,1',3,3'-tetraethylbenzimidazolyl-carbocyanine (JC-1) (Life Technologies, Italy) as previously described. Cytochrome c release was analyzed by flow cytometry using a commercial kit (Innocyte flow cytometric cytochrome c release kit, Calbiochem, Italy) following the manufacturer's instructions.

[2] = tested on: PHA stimulated healthy PBMC; assay: MTT growth inhibition, 72 h; format: cell-based, human; conditions: mean ± SE
Bcl-2 = assay: Western blot, Bcl-2; format: cell-based, human; conditions: SEM and RS4;11, CP 2.5 μM
Description: as §2, with “assay. Data are represented as mean ± S.E.M. of three independent experiments performed in triplicate. *p<0.01 vs CP alone. (D) Western blot analysis of Bcl-2, cleaved caspase-12, caspase-9, cleaved caspase-7, caspase-3 and PARP after treatment of SEM and RS4;11 cells with CP (2.5 μM) for the indicated times. To confirm equal protein loading, each membrane was stripped and reprobed with anti-β-actin antibody.” for “assay.”
Cells were treated with CP and, after different times, were collected, centrifuged and washed with ice cold phosphate-buffered saline (PBS). […] The protein concentration in the supernatant was determined using the BCA protein assay (Pierce, Italy). […]

ubiquitinated proteins = assay: Western blot, Ubiquitin accumulation; format: cell-based, human
Description: FIGURE 3 CP treatment affects Ubiquitin Proteasome System (UPS) 26S proteasome (100 μg) semipurified from (A) SEM and (B) RS4;11 cells was incubated for 60 min at 37 °C with CP at different concentrations. Chymotrypsin (CT), trypsin (T) and peptidyl glutamyl peptide hydrolyzing (PGPH) catalytic activity were measured fluorimetrically (excitation 370, nm emission 460) by following the release of free AMC from synthetic substrates N-Suc-Leu-Leu-Val-Tyr-AMC, Boc-Gln-Ala-Arg-AMC and Z-Leu-Leu-Glu-AMC, specific for CT, T and PGPH activity, respectively. (C) Cells were incubated with CP 2.5 μM for the indicated times and then western blot analyses were performed to evaluate Ubiquitin accumulation.
In normal conditions, misfolded proteins in the ER are driven to the cytoplasm, where upon ubiquitination, are degraded by the proteasome system. […] To assess if CP worked as other proteasome inhibitors, we evaluated the accumulation of ubiquitin after 1.5, 3, and 6 h of treatment.
Cells were treated with CP and, after different times, were collected, centrifuged and washed with ice cold phosphate-buffered saline (PBS). The pellet was then resuspended in lysis buffer as described. The protein concentration in the supernatant was determined using the BCA protein assay (Pierce, Italy). […]

[3] = tested on: human leukemia cell lines; assay: MTT growth inhibition, panel of twelve leukemia cell lines, 72 h; format: cell-based; conditions: healthy lymphocytes vs B-leukemia cells
Description: [Cu(thp)4][PF6] (CP) was evaluated for its growth inhibition activity on a panel of twelve different human leukemia cell lines (five B-acute lymphoblastic leukemia, three T-acute lymphoblastic leukemia, three acute myeloid leukemia and one chronic myeloid leukemia). Cells were treated for 72 h with CP and cell viability was evaluated by MTT test. […] This abnormal high expression of proteasomal proteins and mRNA seem to be correlated to the hyperproliferation of these cancer cells and to the sensitivity towards proteasome inhibitors.
The human leukemia cell lines RS 4;11, SEM, REH, RCH-ACV, MHH-CALL2, Jurkat, CCRF-CEM, HSB2, HL-60, K562, THP-1, MV4;11 were purchased from the American Type Culture Collection. Cells were cultured in RPMI 1640 (Life Technologies, Italy) supplemented with 10% fetal bovine serum (FBS), glutamine (2 mM; Life Technologies, Italy), penicillin (100 U/ml; Life Technologies, Italy) and streptomycin (100 μg/ml; Life Technologies, Italy), and maintained at 37°C in a humidified atmosphere with 5% CO2. The cytotoxic activity of CP was determined using a standard 3-[4,5-dimethylthiazol-2-yl]-2,5-diphenyltetrazodium bromide (MTT) based colorimetric assay (Sigma-Aldrich, Italy). Briefly, cells were seeded at a density of 2×10^4 cells/well in 96-well microtiter plates. After 24 h, cells were exposed to the test compound. After different times, cell survival was determined by the addition of an MTT solution as previously described.

RS4;11 and SEM cells [4] = assay: Mitochondrial transmembrane potential, JC-1; format: cell-based, human; conditions: CP 2.5 μM
Description: as §1, §2, §3

## F[P-](F)(F)(F)(F)F.OCP(CO)CO.OCP(CO)CO.OCP(CO)CO.OCP(CO)CO.[Cu+] [CP, [Cu(thp)4][PF6]]
RS4;11 and SEM cells [1]
  cytochrome c release: did not reveal cytochrome c release
[2]
  GI50: 16.9 ± 1.6 µM
Bcl-2
  time at which decrease of Bcl-2 expression is detectable: ≥ 3 h
Ubiquitinated proteins; RS4;11, CP 2.5 μM
  onset of accumulation of ubiquitinated proteins: ≥ 3 h
Ubiquitinated proteins; SEM, CP 2.5 μM
  onset of accumulation of ubiquitinated proteins: ≥ 1.5 h
[3]
  cytotoxic activity on healthy lymphocytes lower than B-leukemia cells: 5-10 fold
RS4;11 and SEM cells [4]
  percentage of cells with low ΔΨmt: slightly increased, only after 12 h

From PMC4171606, “A novel copper(I) complex induces ER-stress-mediated apoptosis and sensitizes B-acute lymphoblastic leukemia cells to chemotherapeutic agents” (Oncotarget, 2014)
